Experimental data as given in patent US20230285323A1, “ESKETAMINE-SUSPENSION-TTS” (LTS LOHMANN THERAPIE-SYSTEME AG, priority 2020, published 2023).

Assay: Saturation concentration (solubility) of ketamine in silicone pressure sensitive adhesive

CNC1(c2ccccc2Cl)CCCCC1=O (racemic) [ketamine, (RS)-(±)-2-(2-chlorophenyl)-2-(methylamino)cyclohexan-1-one]
Solubility of ketamine in the silicone pressure sensitive adhesive: not more than 1 wt.-%
